Square brackets hold non-standard residues; d marks the D form. Ends that are not written are not given here. Peptide text beside a SMILES is read from it. * marks the point of attachment. Palmitoyl = CCCCCCCCCCCCCCCC(=O)*
Legend:
[1] = system: human epidermal progenitors; assay: MTT cell proliferation, epidermal progenitors; format: cell-based
Description: Proliferation rates were determined using a TACS® MTT Cell Proliferation Kit (R&D systems, Minneapolis, MN). Cells were seeded at 2.5×10^4 per well in 96-well plates in a humidified atmosphere with 5 percent CO2 at 37 degrees Celsius. Twenty-four hours later, decapeptide-12 or oxyresveratrol were added to the corresponding wells at varying concentrations (0, 3, 10, 30, 100, 300, and 1000 micromolar), and cultures were then incubated for 72 hours. The remainder of the procedure was performed following the manufacturer's protocol.
(§1) Proliferation rates for three human cell lines (epidermal progenitors, melanoblasts, and fibroblasts) were determined using a TACS® MTT Cell Proliferation Kit. Cells were seeded at 2.5×10^4 per well in 96-well plates in a humidified atmosphere with 5 percent CO2 at 37 degrees Celsius. Twenty-four hours later, the decapeptides were added to the corresponding wells at varying concentrations and incubated for 72 hours. The remainder of the procedure was performed following the manufacturer's protocol.

melanoblasts [2] = assay: MTT cell proliferation, melanoblasts; format: cell-based, human
Description: as §1

fibroblasts [3] = assay: MTT cell proliferation, fibroblasts; format: cell-based, human
Description: as §1

epidermal progenitors = assay: Trypan blue cell viability after 7 days, epidermal progenitors; format: cell-based, human; conditions: relative to control (untreated cells)
Description: (§2) The effect of each of the decapeptides upon cell viability was also tested. In particular, cells were incubated with the decapeptide at various concentrations and then counted for viability relative to the control (untreated cells) using trypan blue. Cytotoxicity was measured according to the following formula: [1−(# of cells in control−# of live cells in test sample)/# of cells in control]×100 percent.

melanoblasts [4] = assay: Trypan blue cell viability after 7 days, melanoblasts; format: cell-based, human; conditions: relative to control (untreated cells)
Description: as §2

fibroblasts [5] = assay: Trypan blue cell viability after 7 days, fibroblasts; format: cell-based, human; conditions: 50 μM, relative to control (untreated cells)
Description: as §2

PHA-stimulated PBMC [6] = assay: PHA-stimulated PBMC proliferation; format: cell-based, human; conditions: PHA 72 hours
Description: (§3) Cryopreserved human PBMCs were purchased from Astarte Biologics (Redmond, Washington, USA), activated with phytohemagglutinin (PHA), and proliferation assessed. Interleukin (IL)-2 activated human NK cell cytotoxic killing of human K562 cells was assessed using a CytoTox96 non-radioactive cytotoxicity assay kit (Promega). Protease inhibitor was added to the media to prevent degradation of decapeptide-12.
(§4) Three independent trials were performed for each experiment. Microsoft Excel (Seattle, Washington) was used to calculate means and standard errors and statistical significance was determined using unpaired analysis of variance or two-tailed student T-test. P values <0.05 were taken to be statistically significant.
The effects of decapeptide-12 and oxyresveratrol on PBMC proliferation rates after exposure to PHA for 72 hours, were explored.

[7] = system: IL-2 activated human NK cell cytotoxic killing of human K562 cells; assay: NK cytotoxic killing of K562 cells (CytoTox96); format: cell-based
Description: as §3, §4
The impact of decapeptide-12 on IL-2 primed NK-mediated cytotoxic killing of K562 cells, was also assessed.

PHA-stimulated PBMC [8] = conditions: 0.1 millimolar; cited from earlier work

Row | Compound | epidermal progenitor proliferation rate after 72 hours ([1]; 3 μM) | epidermal progenitor proliferation rate after 72 hours ([1]; 10 μM) | epidermal progenitor proliferation rate after 72 hours ([1]; 30 μM) | epidermal progenitor proliferation rate after 72 hours ([1]; 50 μM) | epidermal progenitor proliferation rate after 72 hours ([1]; 100 μM) | epidermal progenitor proliferation rate after 72 hours ([1]; 300 μM) | epidermal progenitor proliferation rate after 72 hours ([1]; 500 μM) | epidermal progenitor proliferation rate after 72 hours ([1]; 1000 μM) | melanoblast proliferation rate after 72 hours (melanoblasts [2]; 3 μM) | melanoblast proliferation rate after 72 hours (melanoblasts [2]; 10 μM) | melanoblast proliferation rate after 72 hours (melanoblasts [2]; 30 μM) | melanoblast proliferation rate after 72 hours (melanoblasts [2]; 50 μM) | melanoblast proliferation rate after 72 hours (melanoblasts [2]; 100 μM) | melanoblast proliferation rate after 72 hours (melanoblasts [2]; 300 μM) | melanoblast proliferation rate after 72 hours (melanoblasts [2]; 500 μM) | melanoblast proliferation rate after 72 hours (melanoblasts [2]; 1000 μM) | fibroblast proliferation rate after 72 hours (fibroblasts [3]; 3 μM) | fibroblast proliferation rate after 72 hours (fibroblasts [3]; 10 μM) | fibroblast proliferation rate after 72 hours (fibroblasts [3]; 30 μM) | epidermal progenitor viability after 7 days (epidermal progenitors; 10 μM) | further results
1 | CCCCCCCCCCCCCCCC(=O)N[C@@H](Cc1ccc(O)cc1)C(=O)N[C@@H](CCCNC(=N)N)C(=O)N[C@@H](CO)C(=O)N[C@@H](CCCNC(=N)N)C(=O)N[C@@H](CCCCN)C(=O)N[C@@H](Cc1ccc(O)cc1)C(=O)N[C@@H](CO)C(=O)N[C@@H](CO)C(=O)N[C@@H](Cc1c[nH]c2ccccc12)C(=O)N[C@@H](Cc1ccc(O)cc1)C(N)=O [P4A, Palmitoyl-YRSRKYSSWY-amide] (Palmitoyl-YRSRKYSSWY-NH2) | 99 ± 1% | 99 ± 1% | 98 ± 1% | 97 ± 1% | 97 ± 2% | 96 ± 2% | 96 ± 2% | 94 ± 2% | 100% | 100% | 99 ± 1% | 98 ± 1% | 97 ± 2% | 97 ± 2% | 96 ± 2% | 95 ± 2% | 100% | 99 ± 1% | 98 ± 1% | 99 ± 1% | fibroblast proliferation rate after 72 hours (fibroblasts [3]; 50 μM): 98 ± 1%; fibroblast proliferation rate after 72 hours (fibroblasts [3]; 100 μM): 97 ± 2%; fibroblast proliferation rate after 72 hours (fibroblasts [3]; 300 μM): 97 ± 2%; fibroblast proliferation rate after 72 hours (fibroblasts [3]; 500 μM): 96 ± 2%; fibroblast proliferation rate after 72 hours (fibroblasts [3]; 1000 μM): 95 ± 2%; melanoblast viability after 7 days (melanoblasts [4]; 10 μM): 99 ± 1%; melanoblast viability after 7 days (melanoblasts [4]; 50 μM): 98 ± 1%; melanoblast viability after 7 days (melanoblasts [4]; 100 μM): 97 ± 2%; fibroblast viability after 7 days (fibroblasts [5]): 98 ± 1%
2 | CCCCCCCCCCCCCCCC(=O)N[C@@H](Cc1ccc(O)cc1)C(=O)N[C@@H](CCCNC(=N)N)C(=O)N[C@@H](CO)C(=O)N[C@@H](CCCNC(=N)N)C(=O)N[C@@H](CCCCN)C(=O)N[C@H](Cc1ccc(O)cc1)C(=O)N[C@@H](CO)C(=O)N[C@@H](CO)C(=O)N[C@@H](Cc1c[nH]c2ccccc12)C(=O)N[C@@H](Cc1ccc(O)cc1)C(N)=O [P4B, Palmitoyl-YRSRK[*Y]SSWY-amide] (Palmitoyl-YRSRK[dY]SSWY-NH2) | 99 ± 1% | 99 ± 1% | 98 ± 1% | 98 ± 1% | 97 ± 1% | 97 ± 1% | 95 ± 2% | 94 ± 2% | 100% | 100% | 99 ± 1% | 98 ± 1% | 97 ± 2% | 96 ± 2% | 95 ± 2% | 94 ± 2% | 100% | 99 ± 1% | 99 ± 1% | 99 ± 1% | fibroblast proliferation rate after 72 hours (fibroblasts [3]; 50 μM): 99 ± 1%; fibroblast proliferation rate after 72 hours (fibroblasts [3]; 100 μM): 98 ± 2%; fibroblast proliferation rate after 72 hours (fibroblasts [3]; 300 μM): 97 ± 2%; fibroblast proliferation rate after 72 hours (fibroblasts [3]; 500 μM): 96 ± 2%; fibroblast proliferation rate after 72 hours (fibroblasts [3]; 1000 μM): 96 ± 2%; epidermal progenitor viability after 7 days (epidermal progenitors; 50 μM): 98 ± 1%; epidermal progenitor viability after 7 days (epidermal progenitors; 100 μM): 97 ± 1%
3 | Oc1cc(O)cc(/C=C/c2ccc(O)cc2O)c1 [oxyresveratrol] |  |  |  |  |  |  |  |  |  |  |  |  |  |  |  |  |  |  |  |  | reduction in proliferation ([1]; 1 millimolar (1000 micromolar), 72 hours, epidermal progenitors): 12±2%; reduction of PHA-stimulated PBMC proliferation (PHA-stimulated PBMC [6]; 0.1 millimolar): 35.3±1.8%; reduction of PHA-stimulated PBMC proliferation (PHA-stimulated PBMC [6]; 0.3 millimolar): progressively less inhibition; reduction of PHA-stimulated PBMC proliferation (PHA-stimulated PBMC [6]; 1 millimolar): progressively less inhibition; reduction of PHA-stimulated PBMC proliferation (PHA-stimulated PBMC [6]; 3 millimolar): 14.7±3.4%; reduction of NK killing of K562 cells ([7]; 0.1 millimolar, E:T ratio 10:1): 88.7±1.8%; reduction of NK killing of K562 cells ([7]; 0.1 millimolar, E:T ratio 30:1): 72.8±1.9%; reduction of NK killing of K562 cells ([7]; 0.3 millimolar, E:T ratio 10:1): 86.1±0.9%; reduction of NK killing of K562 cells ([7]; 0.3 millimolar, E:T ratio 30:1): 64.0±3.4%
4 | Oc1ccc(C=Cc2cc(O)cc(O)c2)cc1 [resveratrol] |  |  |  |  |  |  |  |  |  |  |  |  |  |  |  |  |  |  |  |  | inhibition of PHA-induced proliferation (PHA-stimulated PBMC [8]): inhibits
5 | Ac-YRSRKYSSWY-NH2 [P4C, Acetyl-YRSRKYSSWY-amide] | 99 ± 1% | 99 ± 1% | 98 ± 1% | 98 ± 1% | 97 ± 1% | 97 ± 1% | 96 ± 2% | 96 ± 2% | 100% | 100% | 99 ± 1% | 98 ± 1% | 97 ± 2% | 96 ± 3% | 95 ± 2% | 95 ± 2% | 100% | 99 ± 1% | 99 ± 1% | 99 ± 1% | fibroblast proliferation rate after 72 hours (fibroblasts [3]; 50 μM): 99 ± 1%; fibroblast proliferation rate after 72 hours (fibroblasts [3]; 100 μM): 98 ± 2%; fibroblast proliferation rate after 72 hours (fibroblasts [3]; 300 μM): 97 ± 2%; fibroblast proliferation rate after 72 hours (fibroblasts [3]; 500 μM): 96 ± 2%; fibroblast proliferation rate after 72 hours (fibroblasts [3]; 1000 μM): 96 ± 2%; epidermal progenitor viability after 7 days (epidermal progenitors; 30 μM): 98 ± 1%; epidermal progenitor viability after 7 days (epidermal progenitors; 1000 μM): 94 ± 3%; melanoblast viability after 7 days (melanoblasts [4]; 10 μM): 99 ± 1%; melanoblast viability after 7 days (melanoblasts [4]; 100 μM): 97 ± 2%; melanoblast viability after 7 days (melanoblasts [4]; 300 μM): 96 ± 3%
6 | YRSRKYSSWY [P4, YRSRKYSSWY] |  |  |  |  |  |  |  |  |  |  |  |  |  |  |  |  |  |  |  | 99 ± 1% | melanoblast viability after 7 days (melanoblasts [4]; 10 μM): 99 ± 1%; melanoblast viability after 7 days (melanoblasts [4]; 50 μM): 98 ± 1%; melanoblast viability after 7 days (melanoblasts [4]; 1000 μM): 94 ± 2%
